The text below walks through data of ChEMBL document CHEMBL5537205, “Discovery of D25, a Potent and Selective MNK Inhibitor for Sepsis-Associated Acute Spleen Injury” (J Med Chem, 2024).

For one series, the system named is MV4-11. Put plainly: Antiproliferative activity against human MV4-11 cells assessed as inhibition of cell proliferation at 20 uM incubated for 48 hrs by CCK8 assay relative to control. In kind it is functional.
For series [1], the system named is RAW264.7. Nature of the series: Antiinflammatory activity against mouse RAW264.7 cells assessed as inhibition of LPS-NO production at 20 uM by Griess reagent based assay relative to control. The format is functional. In general terms: Griess reagent forms a coloured azo dye with nitrite.
Series [2] relates to RAW264.7. Nature of the series: Antiinflammatory activity against mouse RAW264.7 cells assessed as inhibition of LPS-NO production by Griess reagent based assay. The format is functional, cell-based.
Series [3] relates to Mus musculus. Put plainly: Antiinflammatory activity in LPS-induced BALB/c sepsis mouse model assessed as decrease in serum TNF-alpha level at 2.5 mg/kg preadministered with compound via gavage for 14 days followed by LPS stimulation and measured after 6 hrs by ELISA. In kind it is functional, organism-based. To be noted: time 342.0 hrs.
Series [4] has as its system Mus musculus. Put plainly: Antiinflammatory activity in LPS-induced BALB/c sepsis mouse model assessed as decrease in cell gap in spleen at 2.5 mg/kg preadministered with compound via gavage for 14 days followed by LPS stimulation and measured after 6 hrs by H&E staining based analysis. Particulars: time 342.0 hrs. The format is functional, organism-based.
Series [5] concerns Mus musculus. Put plainly: Antiinflammatory activity in LPS-induced BALB/c sepsis mouse model assessed as decrease in serum BUN level at 2.5 mg/kg preadministered with compound via gavage for 14 days followed by LPS stimulation and measured after 6 hrs. In kind it is functional, organism-based. Particulars: time 342.0 hrs.
In series [6] the test system is Mus musculus. Nature of the series: Antiinflammatory activity in LPS-induced BALB/c sepsis mouse model assessed as decrease in MDA level in serum at 2.5 mg/kg preadministered with compound via gavage for 14 days followed by LPS stimulation and measured after 6 hrs. The format is functional, organism-based. To be noted: time 342.0 hrs.
Series [7] has as its system Mus musculus. Put plainly: Antiinflammatory activity in LPS-induced BALB/c sepsis mouse model assessed as increase in GSH level in serum at 2.5 mg/kg preadministered with compound via gavage for 14 days followed by LPS stimulation and measured after 6 hrs. To be noted: time 342.0 hrs. The format is functional, organism-based.
Series [8] relates to Mus musculus. Nature of the series: Antiinflammatory activity in LPS-induced BALB/c sepsis mouse model assessed as decrease in infiltration of macrophages in spleen at 2.5 mg/kg preadministered with compound via gavage for 14 days followed by LPS stimulation and measured after 6 hrs by immunohistochemistry analysis. In kind it is functional, organism-based. To be noted: time 342.0 hrs.

The test system of series [9] is Mus musculus. Put plainly: Antiinflammatory activity in LPS-induced BALB/c sepsis mouse model assessed as decrease in inflammatory cells in spleen at 2.5 mg/kg preadministered with compound via gavage for 14 days followed by LPS stimulation and measured after 6 hrs by H&E staining based analysis. To be noted: time 342.0 hrs. In kind it is functional, organism-based.

Series [10] deals with Mus musculus. Put plainly: Antiinflammatory activity in LPS-induced BALB/c sepsis mouse model assessed as decrease in serum IL-6 level at 2.5 mg/kg preadministered with compound via gavage for 14 days followed by LPS stimulation and measured after 6 hrs by ELISA. Particulars: time 342.0 hrs. In kind it is functional, organism-based. Background: An ELISA detects its analyte on a solid surface through an enzyme-linked reagent.

Series [11] relates to RAW264.7. Nature of the series: Antiinflammatory activity in LPS-induced mouse RAW264.7 cells assessed as reduction in ROS level at 10 uM pretreated with compound followed by LPS stimulation and measured after 1 hrs by flow cytometric analysis. The format is functional, cell-based.
Series [12] deals with Mus musculus. Nature of the series: Antiinflammatory activity in LPS-induced BALB/c sepsis mouse model assessed as decrease in serum creatinine level at 2.5 mg/kg preadministered with compound via gavage for 14 days followed by LPS stimulation and measured after 6 hrs. Particulars: time 342.0 hrs. The format is functional, organism-based.
In series [13] the test system is Mus musculus. Nature of the series: Antiinflammatory activity in LPS-induced BALB/c sepsis mouse model assessed as decrease in serum AST level at 2.5 mg/kg preadministered with compound via gavage for 14 days followed by LPS stimulation and measured after 6 hrs. Particulars: time 342.0 hrs. The format is functional, organism-based.
The test system of series [14] is Mus musculus. Nature of the series: Antiinflammatory activity in LPS-induced BALB/c sepsis mouse model assessed as decrease in serum IL-1beta level at 2.5 mg/kg preadministered with compound via gavage for 14 days followed by LPS stimulation and measured after 6 hrs by ELISA. The format is functional, organism-based. Particulars: time 342.0 hrs.
Series [15] concerns Mus musculus. Put plainly: Antiinflammatory activity in LPS-induced BALB/c sepsis mouse model assessed as decrease in serum ALT level at 2.5 mg/kg preadministered with compound via gavage for 14 days followed by LPS stimulation and measured after 6 hrs. In kind it is functional, organism-based. To be noted: time 342.0 hrs.
Series [16] deals with Mus musculus. Nature of the series: Antiinflammatory activity in LPS-induced BALB/c sepsis mouse model assessed as increase in SOD level in serum at 2.5 mg/kg preadministered with compound via gavage for 14 days followed by LPS stimulation and measured after 6 hrs. The format is functional, organism-based. Particulars: time 342.0 hrs.
Series [17] relates to RAW264.7. Put plainly: Cytotoxicity against mouse RAW264.7 cells assessed as reduction in cell viability incubated for 24 hrs by MTT assay. The format is toxicity, cell-based. Particulars: raw264.7, 24 h.

The structures appear in SMILES notation. The source made the active and inactive calls. The rule behind the calls is not given here.

Regarding `Cc1cc(-c2cc(C3CCNCC3)n[nH]2)ccn1`, the inhibition at 20 µM in the series on MV4-11 was 0.1%.

As for `CN1CCC(c2cc(-c3ccncc3)[nH]n2)CC1`, the inhibition at 20 µM in the series on MV4-11 was determined as 3.39%.

In the case of `c1ncc(-c2cc(C3CCNCC3)n[nH]2)cn1`, the inhibition at 20 µM with MV4-11 stood at 0.1%.

Take `Clc1cnccc1-c1cc(C2CCNCC2)n[nH]1`: the inhibition at 20 µM in the series on MV4-11 is 32.8%.

`Fc1cc(-c2cc(C3CCNCC3)n[nH]2)cc(F)c1F`: in the series on MV4-11, the inhibition at 20 µM was determined as 3.4%.

For `FC(F)(F)c1cc(-c2cc(C3CCNCC3)n[nH]2)ccn1`, the inhibition at 20 µM with MV4-11 was determined as 52.5%.

As for `CNc1cc(-c2cc(C3CCNCC3)n[nH]2)ccn1`, the inhibition at 20 µM in the series on MV4-11 was 30.2%.

Turning to `FC(F)(F)c1ccc(-c2cc(C3CCNCC3)n[nH]2)cc1`, the inhibition at 20 µM in the series on MV4-11 was found to be 36%.

Turning to `Nc1ncc(-c2cc(C3CCNCC3)n[nH]2)cn1`, the inhibition at 20 µM in the series with MV4-11 turned out to be 37.9%.

As for `Fc1ccc(-c2cc(C3CCNCC3)n[nH]2)cc1F`, the inhibition at 20 µM in the series on MV4-11 was determined as 6.4%.

For `Fc1ccc(-c2cc(C3CCNCC3)n[nH]2)c(F)c1`, the inhibition at 20 µM in the series with MV4-11 was 9.8%.

Consider `Brc1cnccc1-c1cc(C2CCNCC2)n[nH]1`, for which the inhibition at 20 µM in the series on MV4-11 was 6.1%.

Turning to `Cn1ccc2c(-c3cc(C4CCNCC4)n[nH]3)ccnc21`, the inhibition at 20 µM in the series on MV4-11 was found to be 23.8%.

Take `Fc1ccc(-c2cc(C3CCNCC3)n[nH]2)cc1`: in the series on MV4-11, the inhibition at 20 µM worked out at 0.1%.

Regarding `Fc1cc(F)cc(-c2cc(C3CCNCC3)n[nH]2)c1`, in the series with MV4-11, the inhibition at 20 µM worked out at 2.1%.

With `Brc1cc(-c2cc(C3CCNCC3)n[nH]2)ccn1`, in the series with MV4-11, the inhibition at 20 µM was found to be 20.7%.

As for `c1cnc(-c2cc(C3CCNCC3)n[nH]2)cn1`, in the series with MV4-11, the inhibition at 20 µM came to 0.1%.

Take `c1cncc(-c2cc(C3CCNCC3)n[nH]2)c1`: the inhibition at 20 µM in the series with MV4-11 was 0.2%.

For the molecule `Fc1cc(-c2cc(C3CCNCC3)n[nH]2)ccn1`, the inhibition at 20 µM in the series with MV4-11 is 0.1%.

`CN1CCN(c2ccc(-c3cc(C4CCNCC4)n[nH]3)cc2)CC1`: the inhibition at 20 µM was 8.5% with MV4-11 and > 50% in the series with RAW264.7 [1].

For `COc1cc(-c2cc(C3CCNCC3)n[nH]2)ccn1`, the inhibition at 20 µM in the series on MV4-11 came out at 19.3%.

Turning to `N#Cc1ccc(-c2cc(C3CCNCC3)n[nH]2)cc1`, the inhibition at 20 µM with MV4-11 was 6%; with RAW264.7 [1] it was > 50%.

Consider `CCNc1cc(-c2cc(C3CCNCC3)n[nH]2)ccn1`, for which, in the series with MV4-11, the inhibition at 20 µM was found to be 15.4%.

In the case of `Nc1ncccc1-c1cc(C2CCNCC2)n[nH]1`, the inhibition at 20 µM in the series on MV4-11 worked out at 15.2%.

With `c1cc(-c2cc(C3CCNCC3)n[nH]2)cs1`, in the series with MV4-11, the inhibition at 20 µM is 0.1%.

Take `c1ncc(-c2cc(C3CCNCC3)n[nH]2)s1`: in the series on MV4-11, the inhibition at 20 µM was determined as 11.1%.

With `Clc1cncc(Cl)c1-c1cc(C2CCNCC2)n[nH]1`, in the series on MV4-11, the inhibition at 20 µM turned out to be 19.6%.

Turning to `c1cc(-c2cc(C3CCNCC3)n[nH]2)ccn1`, the inhibition at 20 µM in the series with MV4-11 came out at 51.2%. Moreover, in the series on RAW264.7 [2], the outcome was inactive.

In the case of `C[C@@H]1C[C@H]2[C@@H]3CCC4=CC(=O)C=C[C@]4(C)[C@@]3(F)[C@@H](O)C[C@]2(C)[C@@]1(O)C(=O)CO`, the outcome in the series with Mus musculus [3], with Mus musculus [4], in the series on Mus musculus [5], in the series with Mus musculus [6], in the series on Mus musculus [7] and in the series on Mus musculus [8] was Active. Moreover, the outcome with Mus musculus [9], in the series with Mus musculus [10], in the series on RAW264.7 [11], in the series on Mus musculus [12], with Mus musculus [13] and with Mus musculus [14] was Active. Also, the result in the series on Mus musculus [15] and in the series on Mus musculus [16] was Active.

In the case of `c1cc(-c2cc(C3CCNCC3)n[nH]2)ncn1`, the inhibition at 20 µM in the series on MV4-11 was determined as 0.2%.

Consider `Cc1cc(F)ccc1-c1cc(C2CCNCC2)n[nH]1`, for which the inhibition at 20 µM with MV4-11 was 31.2%.

On to `c1cc(-c2cc(C3CCNCC3)[nH]n2)ccn1`, for which the Activity entry with RAW264.7 [17] was “Non-Toxic”.

As for `CN(C)c1cc(-c2cc(C3CCNCC3)n[nH]2)ccn1`, the inhibition at 20 µM in the series on MV4-11 was determined as 56.9%.

Consider `c1ccc(-c2cc(C3CCNCC3)n[nH]2)cc1`, for which the inhibition at 20 µM in the series with MV4-11 turned out to be 0.3%.

Turning to `Fc1cnccc1-c1cc(C2CCNCC2)n[nH]1`, in the series with RAW264.7 [17], the Activity result was “Non-Toxic”. Further, the inhibition at 20 µM in the series with MV4-11 was 0.1%. For the same molecule, in the series with RAW264.7 [2], the outcome was inactive.

For the molecule `Nc1ccc(-c2cc(C3CCNCC3)n[nH]2)cn1`, in the series on MV4-11, the inhibition at 20 µM was determined as 35%.

As to `Nc1cc(-c2cc(C3CCNCC3)n[nH]2)ccn1`, in the series with RAW264.7 [17], the Activity entry is reported as “Non-Toxic”. Also, the inhibition at 20 µM in the series with MV4-11 amounted to 33.3%. Moreover, the outcome with RAW264.7 [2] was inactive.

As for `Cc1cc(-c2cc(C3CCNCC3)n[nH]2)cc(C)n1`, in the series with MV4-11, the inhibition at 20 µM is 0.2%.

On to `Clc1cc(-c2cc(C3CCNCC3)n[nH]2)cc(Cl)n1`, for which the inhibition at 20 µM in the series on MV4-11 was determined as 22.1%.

Consider `Fc1cccc(-c2cc(C3CCNCC3)n[nH]2)c1`, for which the inhibition at 20 µM in the series with MV4-11 amounted to 0.1%.

With `Clc1cc(-c2cc(C3CCNCC3)n[nH]2)ccn1`, the inhibition at 20 µM with MV4-11 stood at 35.6%.

In the case of `O=[N+]([O-])c1ccc(-c2cc(C3CCNCC3)n[nH]2)cc1`, in the series with MV4-11, the inhibition at 20 µM was 4.6%.

For orientation: inhibition means the change of the read-out against control, counted positive when it falls.
